pEC50: −log10 of the molar value.
Target: T1, LXRβ (Homo sapiens, UniProt P55055)
T1 construct: Co-transfection expression plasmids, comprising full-length LXRα (pCMX-h LXRα or LXRβ (pCMX-hLXRβ)); expressed in transfected cells; host or cells: CV-1 African green monkey kidney cells, transient transfection with pCMX-hLXRβ
T1 sequence (P55055 1-460): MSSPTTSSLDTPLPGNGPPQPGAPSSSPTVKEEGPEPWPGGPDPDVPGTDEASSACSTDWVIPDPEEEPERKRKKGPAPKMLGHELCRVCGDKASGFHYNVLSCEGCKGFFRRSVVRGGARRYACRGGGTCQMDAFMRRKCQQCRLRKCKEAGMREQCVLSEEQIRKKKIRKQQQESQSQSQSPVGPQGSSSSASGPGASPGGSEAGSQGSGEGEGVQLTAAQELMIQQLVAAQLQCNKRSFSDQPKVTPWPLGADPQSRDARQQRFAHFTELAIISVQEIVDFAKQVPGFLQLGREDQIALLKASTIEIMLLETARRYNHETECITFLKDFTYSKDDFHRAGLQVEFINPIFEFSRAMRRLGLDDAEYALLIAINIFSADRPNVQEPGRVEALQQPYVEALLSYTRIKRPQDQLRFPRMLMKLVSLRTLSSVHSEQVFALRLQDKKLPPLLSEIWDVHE
T1 sequence (P19793 1-462 partner): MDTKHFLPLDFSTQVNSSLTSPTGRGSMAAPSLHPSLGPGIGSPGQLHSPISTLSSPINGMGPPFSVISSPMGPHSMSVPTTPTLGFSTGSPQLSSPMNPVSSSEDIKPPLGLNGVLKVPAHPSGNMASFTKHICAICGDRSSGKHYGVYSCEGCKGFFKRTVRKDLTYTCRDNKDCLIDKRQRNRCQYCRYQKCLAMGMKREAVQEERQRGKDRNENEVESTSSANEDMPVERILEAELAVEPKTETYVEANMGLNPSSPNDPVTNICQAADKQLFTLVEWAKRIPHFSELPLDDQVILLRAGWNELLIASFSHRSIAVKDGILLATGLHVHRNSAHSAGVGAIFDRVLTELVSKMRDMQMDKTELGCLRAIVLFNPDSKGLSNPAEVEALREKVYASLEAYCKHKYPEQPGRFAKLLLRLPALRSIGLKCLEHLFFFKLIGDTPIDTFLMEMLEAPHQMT
Assay: LXR/LXRE co-transfection assay (luciferase reporter) in CV-1 cells, LXRβ
Type: cell-based
Settings: for pEC50: CV-1 cells transfected with pCMX-hLXRβ and LXREx1-Tk-Luciferase, 20 hours incubation, read-out: LXRbeta agonism EC50; for Emax: read-out: LXRbeta % EFFICACY
Procedure, shortened: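 Luciferase read-out after 20 h compound treatment at 37 °C of CV-1 cells carrying transfected hLXRβ plus one-copy LXRE reporter, endogenous RXR partnering. Sigmoidal fit of 10-point half-log curves (4 wells each) gave EC50; % efficacy versus maximal response of the propionamide reference agonist.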

[1] = CV-1 cells, relative to maximum response of high control N-(3-((4-fluorophenyl)-(naphthalene-2-sulfonyl)amino)propyl)-2,2-dimethylpropionamide

Row | Structure (SMILES) | pEC50 | LXRbeta % EFFICACY [1] [%] | Emax [1] [%]
1 | Cc1nc(-c2ccc3c(c2)OC(F)(F)O3)c(-c2cc(-c3cccc(S(C)(=O)=O)c3)ccc2-c2cc(C(C)O)nn2C)o1 (stereo not shown) [Example 101, 1-(5-(3-(4-(2,2-difluorobenzo[d][1,3]dioxol-5-yl)-2-methyloxazol-5-yl)-3′-(methylsulfonyl)-[1,1′-biphenyl]-4-yl)-1-methyl-1H-pyrazol-3-yl)ethanol] | 7.10 | 50 | 
2 | Cc1nc(-c2ccc(OC(F)(F)F)cc2)c(-c2cc(-c3cccc(S(C)(=O)=O)c3)ccc2-n2ccc(C(C)(C)O)n2)o1 [Example 316, 2-(1-(3-(2-methyl-4-(4-(trifluoromethoxy)phenyl)oxazol-5-yl)-3′-(methylsulfonyl)biphenyl-4-yl)-1H-pyrazol-3-yl)propan-2-ol] | 6.53 |  | 24
3 | Cc1nc(-c2ccc3c(c2)OC(F)(F)O3)c(-c2cc(-c3cc(F)c(CO)c(S(C)(=O)=O)c3)ccc2-c2cc(C(C)(C)c3nnco3)nn2C)o1 [Example 68, (4′-(3-(2-(1,3,4-oxadiazol-2-yl)propan-2-yl)-1-methyl-1H-pyrazol-5-yl)-3′-(4-(2,2-difluorobenzo[d][1,3]dioxol-5-yl)-2-methyloxazol-5-yl)-3-fluoro-5-(methylsulfonyl)biphenyl-4-yl)methanol] | 7.54 |  | 51
4 | Cc1nc(-c2ccc3c(c2)OC(F)(F)O3)c(-c2cc(-c3cc(F)c(CO)c(S(C)(=O)=O)c3)ccc2-c2cc(C(N)=O)nn2C)o1 [Example 56, 5-(3-(4-(2,2-difluorobenzo[d][1,3]dioxol-5-yl)-2-methyloxazol-5-yl)-3′-fluoro-4′-(hydroxymethyl)-5′-(methylsulfonyl)biphenyl-4-yl)-1-methyl-1H-pyrazole-3-carboxamide] | 5.96 |  | 35
5 | Cc1nc(-c2ccc3c(c2)OC(F)(F)O3)c(-c2cc(-c3cc(F)c(CO)c(S(C)(=O)=O)c3)ccc2-c2cc(C(C)(C)C(N)=O)nn2C)o1 [Example 65, 2-(5-(3-(4-(2,2-difluorobenzo[d][1,3]dioxol-5-yl)-2-methyloxazol-5-yl)-3′-fluoro-4′-(hydroxymethyl)-5′-(methylsulfonyl)biphenyl-4-yl)-1-methyl-1H-pyrazol-3-yl)-2-methylpropanamide] | 7.17 |  | 55
6 | Cc1nc(-c2ccc(OC(F)(F)F)cc2)c(-c2cc(-c3cccc(S(C)(=O)=O)c3)ccc2-n2ccc(C#N)n2)o1 [Example 318, 1-(3-(2-methyl-4-(4-(trifluoromethoxy)phenyl)oxazol-5-yl)-3′-(methylsulfonyl)biphenyl-4-yl)-1H-pyrazole-3-carbonitrile] | 6.61 |  | 84
7 | Cn1nc(C(F)F)cc1-c1ccc(-c2cc(F)c(CO)c(S(C)(=O)=O)c2)cc1-n1nncc1-c1ccc(OC(F)(F)F)cc1 [Example 23, {4′-[3-(difluoromethyl)-1-methyl-1H-pyrazol-5-yl]-3-fluoro-5-(methylsulfonyl)-3′-(5-{4-[(trifluoromethyl)oxy]phenyl}-1H-1,2,3-triazol-1-yl)biphenyl-4-yl}methanol] | 7.38 |  | 79
8 | Cc1nc(-c2ccc3c(c2)OC(F)(F)O3)c(-c2cc(-c3cccc(S(C)(=O)=O)c3)ccc2-c2cc(CC(C)(C)O)nn2C)o1 [Example 121, 1-(5-(3-(4-(2,2-difluorobenzo[d][1,3]dioxol-5-yl)-2-methyloxazol-5-yl)-3′-(methylsulfonyl)-[1,1′-biphenyl]-4-yl)-1-methyl-1H-pyrazol-3-yl)-2-methylpropan-2-ol] | 6.76 |  | 40
9 | Cn1nc(C(F)(F)F)cc1-c1ccc(-c2cc(F)c(CO)c(S(C)(=O)=O)c2)cc1-n1nncc1-c1ccc(OC(F)(F)F)cc1 [Example 15, (3-fluoro-4′-(1-methyl-3-(trifluoromethyl)-1H-pyrazol-5-yl)-5-(methylsulfonyl)-3′-(5-(4-(trifluoromethoxy)phenyl)-1H-1,2,3-triazol-1-yl)biphenyl-4-yl)methanol] | 7.96 |  | 95
10 | Cc1nc(-c2cc(-c3cc(F)c(CO)c(S(C)(=O)=O)c3)ccc2-c2cc(C(C)(C)C(C)(C)O)nn2C)c(-c2ccc3c(c2)OC(F)(F)O3)o1 [Example 64, 3-(5-(3-(5-(2,2-difluorobenzo[d][1,3]dioxol-5-yl)-2-methyloxazol-4-yl)-3′-fluoro-4′-(hydroxymethyl)-5′-(methylsulfonyl)biphenyl-4-yl)-1-methyl-1H-pyrazol-3-yl)-2,3-dimethylbutan-2-ol] | 7.62 |  | 42
11 | Cc1nc(-c2ccc(Cl)c(OC(F)F)c2)c(-c2cc(-c3cc(F)c(CO)c(S(C)(=O)=O)c3)ccc2-n2ccc(C(F)(F)F)n2)o1 [Example 356, (3′-(4-(4-chloro-3-(difluoromethoxy)phenyl)-2-methyloxazol-5-yl)-3-fluoro-5-(methylsulfonyl)-4′-(3-(trifluoromethyl)-1H-pyrazol-1-yl)biphenyl-4-yl)methanol] | 7.15 |  | 63

Results, then the compound that gave them:

Row | pEC50 | LXRbeta % EFFICACY [1] [%] | Emax [1] [%] | Structure (SMILES)
12 | 6.49 |  | 49 | Cc1nc(-c2ccc(C(F)(F)F)cc2)c(-c2cc(-c3cccc(S(C)(=O)=O)c3)ccc2-n2cc(Cl)c(C(F)(F)F)n2)o1 [Example 437, 5-(4-(4-chloro-3-(trifluoromethyl)-1H-pyrazol-1-yl)-3′-(methylsulfonyl)-[1,1′-biphenyl]-3-yl)-2-methyl-4-(4-(trifluoromethyl)phenyl)oxazole]
13 | 6.58 |  | 12 | Cc1nc(-c2ccc3c(c2)OC(F)(F)O3)c(-c2cc(-c3cc(F)c(CO)c(S(C)(=O)=O)c3)ccc2-n2ccc(C(N)=O)n2)o1 [Example 360, 1-(3-(4-(2,2-difluorobenzo[d][1,3]dioxol-5-yl)-2-methyloxazol-5-yl)-3-fluoro-4′-(hydroxymethyl)-5′-(methylsulfonyl)-[1,1′-biphenyl]-4-yl)-1H-pyrazole-3-carboxamide]
14 | 8.15 |  | 74 | Cc1nc(-c2ccc3c(c2)OC(F)(F)O3)c(-c2cc(-c3cc(F)c(CO)c(S(C)(=O)=O)c3)ccc2-n2cc(Cl)c(C(F)(F)F)n2)o1 [Example 420, (4′-(4-chloro-3-(trifluoromethyl)-1H-pyrazol-1-yl)-3′-(4-(2,2-difluorobenzo[d][1,3]dioxol-5-yl)-2-methyloxazol-5-yl)-3-fluoro-5-(methylsulfonyl)-[1,1′-biphenyl]-4-yl) methanol]
15 | 7.43 |  | 69 | Cc1nc(-c2ccc(OC(F)F)cc2Cl)c(-c2cc(-c3cccc(S(C)(=O)=O)c3)ccc2-n2cc(Cl)c(C(F)(F)F)n2)o1 [Example 431]
16 | 7.03 |  | 83 | COc1ncc(-c2nc(C)oc2-c2cc(-c3cc(F)c(CO)c(S(C)(=O)=O)c3)ccc2-n2cc(Cl)c(C(F)(F)F)n2)cn1 [Example 428, (4′-(4-chloro-3-(trifluoromethyl)-1H-pyrazol-1-yl)-3-fluoro-3′-(4-(2-methoxypyrimidin-5-yl)-2-methyloxazol-5-yl)-5-(methylsulfonyl)-[1,1′-biphenyl]-4-yl)methanol]
17 | 7.47 |  | 86 | Cc1nc(-c2cc(-c3cc(F)c(CO)c(S(C)(=O)=O)c3)ccc2-n2nc(C(F)(F)F)cc2C)c(-c2ccc(OC(F)(F)F)cc2)o1 [Example 386, (3-fluoro-4′-(5-methyl-3-(trifluoromethyl)-1H-pyrazol-1-yl)-3′-(2-methyl-5-(4-(trifluoromethoxy)phenyl)oxazol-4-yl)-5-(methylsulfonyl)biphenyl-4-yl)methanol]
